Measurements from patent publication US20120277257A1, “Methods of Treating Diseases, Pharmaceutical Compositions, and Pharmaceutical Dosage Forms” (MYREXIS, INC., priority 2009, published 2012).
Like-named read-outs stand apart in the source and are kept apart here.

Columns and labels:
[1] = Phase I clinical trial, human plasma pharmacokinetics of oral Compound 1; assay type: in vivo; conditions: human, plasma, po; for Vd/F: read-out: Vz/F
Procedure: A human clinical study was initiated at a starting dose of 50 mg/m^2. Subjects had recurrent cancer refractory to available systemic therapy. Compound 1 was administered daily by mouth in tablet form for 21 consecutive days in a 28 day cycle to each enrolled subject. […] Plasma was collected pre-dose only for cycle 1 day 8. […] Patients were men and women with metastatic cancer, ranged in age from 45 to 85 years, and received doses ranging from 50 mg/m^2 to 340 mg/m^2, with a total daily dose of 100-740 mg (Tables 2A and 2B).

[2] = tested on: OVCAR-3 ovarian cancer; assay: OVCAR-3 ovarian cancer xenograft; assay type: in vivo, mice; conditions: daily for 35 days
[3] = tested on: B16 melanoma allograft; assay: B16 melanoma allograft; assay type: in vivo, mice; conditions: 200 mg/kg oral, daily for 8 days
[4] = tested on: DU-145 prostate cancer; assay: DU-145 prostate cancer xenograft; assay type: in vivo, mice; conditions: 200 mg/kg oral, 5-days-on/2-days-off, after 5 cycles
[5] = tested on: BT-474 HER2+ breast cancer; assay: BT-474 HER2+ breast cancer xenograft; assay type: in vivo, mice; conditions: 200 mg/kg oral, daily for 70 days
[6] = in vivo; conditions: female, Hsd:athymic nude-Foxn1^nu, mouse, po
Procedure: The efficacy of Compound 1 was compared to that of SNX-5422 (Serenex, Pfizer, Inc.) on the growth of NCI-N87 (Her2+) human gastric cancer cells as a xenograft in athymic nude mice model. Animals were dosed with either 200 mg/kg of Compound 1 on days 1 through 21 or 40 mg/kg of SNX-5422 thrice weekly for three weeks. Tumor volumes and body weights were determined from Days 1 to 39.
Five million NCI-N87 cells were implanted subcutaneously in the right flank of female nude mice (Hsd:athymic nude-Foxn1^nu). When the median tumor volume was approximately 123 mm^3, mice were randomized into three cohorts of ten animals. One cohort was dosed orally with vehicle, one cohort was dosed orally with Compound 1 (200 mg/kg) formulated in vehicle, and one cohort was dosed orally with SNX-5422 (40 mg/kg) formulated in dimethylacetamide/polyethylene glycol 300. Vehicle and Compound 1 were administered on days 1-21 and SNX-5422 was administered thrice weekly on Days 1, 3, 5, 8, 10, 12, 15, 17 and 19. The mice were observed daily for mortality and signs of toxicity.

[7] = 100 mg/m^2, Day 21, Cohort 2, 100 mg/m^2 (160 mg), oral daily
[8] = 100 mg/m^2, Day 21, Cohort 2, Subject 201, 100 mg/m^2 (160 mg), oral daily
[9] = 165 mg/m^2, Day 01, Cohort 3, Subject 301, 165 mg/m^2 (300 mg), oral daily
[10] = 165 mg/m^2, Day 21, Cohort 3, 165 mg/m^2 (300 mg), oral daily
[11] = 165 mg/m^2, Day 21, Cohort 3, Subject 301, 165 mg/m^2 (300 mg), oral daily
[12] = 245 mg/m^2, Day 01, Cohort 4, N = 6, 245 mg/m^2 (340-540 mg), oral daily
[13] = 340 mg/m^2, Day 01, Cohort 5, 340 mg/m^2 (480-620 mg), oral daily
[14] = 340 mg/m^2, Day 01, Cohort 5, N = 2, 340 mg/m^2 (480-620 mg), oral daily
[15] = 340 mg/m^2, Day 21, Cohort 5 (BID), Subject 508, 340 mg/m^2 (330 mg), oral twice daily
[16] = 340 mg/m^2, Day 21, Cohort 5, 340 mg/m^2 (620 mg), oral daily
[17] = 340 mg/m^2, Day 21, Cohort 5, Subject 503, 340 mg/m^2 (620 mg), oral daily
[18] = Day 21, Cohort 4, 176-245 mg/m^2 (340-540 mg), oral daily

C[C@H](O)C(=O)N1CCC(CCn2c(Sc3cc4c(cc3Br)OCO4)nc3c(N)ncnc32)CC1 [Compound 1, (2S)-1-[4-(2-{6-amino-8-[(6-bromo-1,3-benzodioxol-5-yl)thio]-9H-purin-9-yl}ethyl)piperidin-1-yl]-1-oxopropan-2-ol]
half-life ([1]; 100 mg/m^2, Day 01, Cohort 2, Subject 201, 100 mg/m^2 (160 mg), oral daily): 9.8 h | AUC(0-inf) [1, 7]: 67.3 µg·h/mL | AUC(0-t) ([1]; 100 mg/m^2, Day 21, Cohort 2, 100 mg/m^2 (160 mg), oral daily, read-out: AUC(0-24)): 49.8 µg·h/mL | Vd/F [1, 7]: 52 L | Cmax [1, 8]: 3180 ng/mL | Tmax [1, 8]: 6 h | half-life [1, 8]: 11.2 h | Cmax [1, 9]: 6870 ng/mL | Tmax [1, 9]: 4 h | half-life [1, 9]: 11.5 h | AUC(0-inf) [1, 10]: 308 µg·h/mL | AUC(0-t) ([1]; 165 mg/m^2, Day 21, Cohort 3, 165 mg/m^2 (300 mg), oral daily, read-out: AUC(0-24)): 200 µg·h/mL | Vd/F [1, 10]: 30.4 L | Cmax [1, 11]: 11800 ng/mL | Tmax [1, 11]: 8 h | half-life [1, 11]: 14 h | AUC(0-inf) ([1]; 240 mg, Day 01, Cohort 6 (BID), 240 mg, oral twice daily, based on a single 12-hour dosing interval): 55 µg·h/mL | AUC(0-t) ([1]; 240 mg, Day 01, Cohort 6 (BID), 240 mg, oral twice daily, read-out: AUC(0-12)): 38.2 µg·h/mL | Vd/F ([1]; 240 mg, Day 01, Cohort 6 (BID), 240 mg, oral twice daily): 39.6 L | AUC(0-inf) ([1]; 240 mg, Day 21, Cohort 6 (BID), 240 mg, oral twice daily, based on a single 12-hour dosing interval): 95.1 µg·h/mL | AUC(0-t) ([1]; 240 mg, Day 21, Cohort 6 (BID), 240 mg, oral twice daily, read-out: AUC(0-12)): 67.6 µg·h/mL | Vd/F ([1]; 240 mg, Day 21, Cohort 6 (BID), 240 mg, oral twice daily): 34.6 L | Cmax [1, 12]: 7840 ng/mL | Tmax [1, 12]: 2.5 h | half-life [1, 12]: 10.8 h | AUC(0-inf) ([1]; 340 mg/m^2, Day 01, Cohort 5 (BID), 340 mg/m^2 (270-370 mg), oral twice daily, based on a single 12-hour dosing interval): 107 µg·h/mL | AUC(0-t) ([1]; 340 mg/m^2, Day 01, Cohort 5 (BID), 340 mg/m^2 (270-370 mg), oral twice daily, read-out: AUC(0-12)): 62.1 µg·h/mL | Vd/F ([1]; 340 mg/m^2, Day 01, Cohort 5 (BID), 340 mg/m^2 (270-370 mg), oral twice daily): 28.4 L | AUC(0-inf) [1, 13]: 334 µg·h/mL | AUC(0-t) ([1]; 340 mg/m^2, Day 01, Cohort 5, 340 mg/m^2 (480-620 mg), oral daily, read-out: AUC(0-24)): 233 µg·h/mL | Vd/F [1, 13]: 51.4 L | Cmax [1, 14]: 16300 ng/mL | Tmax [1, 14]: 3 h | half-life [1, 14]: 14.1 h | AUC(0-inf) ([1]; 340 mg/m^2, Day 21, Cohort 5 (BID), 340 mg/m^2 (330 mg), oral twice daily, based on a single 12-hour dosing interval): 96.3 µg·h/mL | AUC(0-t) ([1]; 340 mg/m^2, Day 21, Cohort 5 (BID), 340 mg/m^2 (330 mg), oral twice daily, read-out: AUC(0-12)): 69.5 µg·h/mL | Vd/F ([1]; 340 mg/m^2, Day 21, Cohort 5 (BID), 340 mg/m^2 (330 mg), oral twice daily): 45.7 L | Cmax [1, 15]: 11000 ng/mL | Tmax [1, 15]: 1 h | half-life [1, 15]: 6.7 h | AUC(0-inf) [1, 16]: 610 µg·h/mL | AUC(0-t) ([1]; 340 mg/m^2, Day 21, Cohort 5, 340 mg/m^2 (620 mg), oral daily, read-out: AUC(0-24)): 363 µg·h/mL | Vd/F [1, 16]: 36.8 L | Cmax [1, 17]: 25600 ng/mL | Tmax [1, 17]: 1 h | half-life [1, 17]: 19.3 h | AUC(0-inf) [1, 18]: 202 µg·h/mL | AUC(0-t) ([1]; Day 21, Cohort 4, 176-245 mg/m^2 (340-540 mg), oral daily, read-out: AUC(0-24)): 127 µg·h/mL | Vd/F [1, 18]: 77.9 L | TGI (tumor growth inhibition) ([2]; 150 mg/kg oral): 84% | TGI (tumor growth inhibition) ([2]; 200 mg/kg oral): 97% | TGI (tumor growth inhibition) [3]: 50% TGI | TGI (tumor growth inhibition), average [4]: Average of ~80% TGI after 5 | tumor regression [5]: 17% regression | MTD [6]: 200 mg/kg
